US10227344B2, “CK2 inhibitors, compositions and methods thereof” (Polaris Pharmaceuticals, Inc., priority 2016, dated 2019)

Legend:
Type in all cases: cell-based
[1] = tested on: Colo205; assay: Cancer cell panel, cell viability (resazurin): Colon, Colo205; details: 72 hours, labelled drug combined with Example 3
[2] = tested on: H23; assay: Cancer cell panel, cell viability (resazurin): NSCLC, H23; details: 72 hours, labelled drug combined with Example 3
Experimental: (§1) Cells were plated in 96-well plates and treated for 72 hours with a serially diluted CK2 inhibitor or anti-cancer drug or their combination. The suspension cell lines were treated right after plating, while the adherent cells were allowed to attach overnight prior to the start of the treatment.
(§2) Cell viability was determined by adding resazurin to cell cultures and measuring fluorescence with a plate reader. Relative cell viability was calculated by dividing the cell viability signal from a test sample by that of a non-treated control. […] Bliss Independence and Highest Single Agent models were used to determine if there is synergy, additivity or antagonism between the CK2 inhibitor and an anti-cancer drug.

[3] = tested on: MDA-MB-231; assay: Cancer cell panel, cell viability (resazurin): Breast, MDA-MB-231; details: MDA-MB-231 (Breast), 72 hours; labelled drug combined with Example 3
[4] = tested on: SK-MEL-24; assay: Cancer cell panel, cell viability (resazurin): Melanoma, SK-MEL-24; details: SK-MEL-24 (Melanoma), 72 hours; labelled drug combined with Example 3
[5] = tested on: BT-20; assay: Cancer cell panel, cell viability (resazurin): Breast, BT-20; details: BT-20 (Breast), 72 hours; labelled drug combined with Example 3
Experimental: as §1, §2

[6] = tested on: SkBr-3; assay: Cancer cell panel, cell viability (resazurin): Breast, SkBr-3; details: SkBr-3 (Breast), 72 hours; labelled drug combined with Example 3
[7] = tested on: H1299; assay: Cancer cell panel, cell viability (resazurin): NSCLC, H1299; details: 72 hours, labelled drug combined with Example 3
[8] = tested on: ZR-75-1; assay: Cancer cell panel, cell viability (resazurin): Breast, ZR-75-1; details: ZR-75-1 (Breast), 72 hours; labelled drug combined with Example 3
Experimental: as §1, §2

[9] = tested on: Caov-3; assay: Cancer cell panel, cell viability (resazurin): Ovarian, Caov-3; details: Caov-3 (Ovarian), 72 hours; labelled drug combined with Example 3
[10] = tested on: H1975; assay: Cancer cell panel, cell viability (resazurin): NSCLC, H1975; details: 72 hours, labelled drug combined with Example 3
[11] = tested on: LoVo; assay: Cancer cell panel, cell viability (resazurin): Colon, LoVo; details: 72 hours, labelled drug combined with Example 3
[12] = tested on: WM-115; assay: Cancer cell panel, cell viability (resazurin): Melanoma, WM-115; details: WM-115 (Melanoma), 72 hours; labelled drug combined with Example 3
[13] = tested on: HT29; assay: Cancer cell panel, cell viability (resazurin): Colon, HT29; details: 72 hours, labelled drug combined with Example 3
[14] = tested on: EOL-1; assay: Cancer cell panel, cell viability (resazurin): Leukemia, EOL-1; details: EOL-1 (Leukemia), 72 hours; labelled drug combined with Example 3
[15] = tested on: OVCAR-3; assay: Cancer cell panel, cell viability (resazurin): Ovarian, OVCAR-3; details: OVCAR-3 (Ovarian), 72 hours; labelled drug combined with Example 3
Experimental: as §1, §2

[16] = tested on: MDA-MB-157; assay: Cancer cell panel, cell viability (resazurin): Breast, MDA-MB-157; details: MDA-MB-157 (Breast), 72 hours; labelled drug combined with Example 3
[17] = tested on: H2122; assay: Cancer cell panel, cell viability (resazurin): NSCLC, H2122; details: 72 hours, labelled drug combined with Example 3
Experimental: as §1, §2

[18] = tested on: BxPC3; assay: Cancer cell panel, cell viability (resazurin): Pancreatic, BxPC3; details: 72 hours, labelled drug combined with Example 3
Experimental: as §1, §2

[19] = tested on: BT-474; assay: Cancer cell panel, cell viability (resazurin): Breast, BT-474; details: BT-474 (Breast), 72 hours; labelled drug combined with Example 3
[20] = tested on: A549; assay: Cancer cell panel, cell viability (resazurin): NSCLC, A549; details: 72 hours, labelled drug combined with Example 3
[21] = tested on: RPMI8226; assay: Cancer cell panel, cell viability (resazurin): multiple myeloma, RPMI8226; details: 72 hours, labelled drug combined with Example 3
[22] = tested on: K562; assay: Cancer cell panel, cell viability (resazurin): Leukemia, K562; details: 72 hours, labelled drug combined with Example 3
[23] = tested on: T47D; assay: Cancer cell panel, cell viability (resazurin): Breast, T47D; details: 72 hours, labelled drug combined with Example 3
Experimental: as §1, §2

[24] = tested on: HL60; assay: Cancer cell panel, cell viability (resazurin): Leukemia, HL60; details: 72 hours, labelled drug combined with Example 3
[25] = tested on: Raji; assay: Cancer cell panel, cell viability (resazurin): Burkitt's Lymphoma, Raji; details: 72 hours, labelled drug combined with Example 3
[26] = tested on: Daudi; assay: Cancer cell panel, cell viability (resazurin): Burkitt's Lymphoma, Daudi; details: 72 hours, labelled drug combined with Example 3
Experimental: as §1, §2

[27] = tested on: HCT116; assay: Cancer cell panel, cell viability (resazurin): Colon, HCT116; details: 72 hours, labelled drug combined with Example 3
[28] = tested on: SK-MEL-3; assay: Cancer cell panel, cell viability (resazurin): Melanoma, SK-MEL-3; details: SK-MEL-3 (Melanoma), 72 hours; labelled drug combined with Example 3
Experimental: as §1, §2

[29] = tested on: A375; assay: Cancer cell panel, cell viability (resazurin): Melanoma, A375; details: 72 hours, labelled drug combined with Example 3
[30] = tested on: DLD-1; assay: Cancer cell panel, cell viability (resazurin): Colon, DLD-1; details: DLD-1 (Colon), 72 hours; labelled drug combined with Example 3
[31] = tested on: MDA-MB-453; assay: Cancer cell panel, cell viability (resazurin): Breast, MDA-MB-453; details: MDA-MB-453 (Breast), 72 hours; labelled drug combined with Example 3
[32] = tested on: SKOV-3; assay: Cancer cell panel, cell viability (resazurin): Ovarian, SKOV-3; details: SKOV-3 (Ovarian), 72 hours; labelled drug combined with Example 3
[33] = tested on: H460; assay: Cancer cell panel, cell viability (resazurin): NSCLC, H460; details: 72 hours, labelled drug combined with Example 3

**Q.** What does the source list for `CC(=O)O[C@H]1C(=O)[C@@]2(C)[C@H]([C@H](OC(=O)c3ccccc3)[C@]3(O)C[C@H](OC(=O)[C@H](O)[C@@H](NC(=O)c4ccccc4)c4ccccc4)C(C)=C1C3(C)C)[C@]1(OC(C)=O)CO[C@@H]1C[C@@H]2O` [Paclitaxel, paclitaxel]?
**A.** synergy, additivity or antagonism of the combination of Example 3 with the anti-cancer drug [1]: + + + (Synergy relative to each agent alone (CI = 0.4-0.74 by Bliss Independence Model)); synergy, additivity or antagonism of the combination of Example 3 with the anti-cancer drug [2]: + + (Slight synergy relative to each agent alone (CI = 0.75-0.9 by Bliss Independence Model)); synergy, additivity or antagonism of the combination of Example 3 with the anti-cancer drug [3]: + (Additive relative to each agent alone (CI = 0.9-1 by Bliss Independence Model and <0.9 by Highest Single Agent Model)); synergy, additivity or antagonism of the combination of Example 3 with the anti-cancer drug [4]: + (Additive relative to each agent alone (CI = 0.9-1 by Bliss Independence Model and <0.9 by Highest Single Agent Model)); synergy, additivity or antagonism of the combination of Example 3 with the anti-cancer drug [5]: + + (Slight synergy relative to each agent alone (CI = 0.75-0.9 by Bliss Independence Model)); synergy, additivity or antagonism of the combination of Example 3 with the anti-cancer drug [6]: + (Additive relative to each agent alone (CI = 0.9-1 by Bliss Independence Model and <0.9 by Highest Single Agent Model)); synergy, additivity or antagonism of the combination of Example 3 with the anti-cancer drug [7]: + (Additive relative to each agent alone (CI = 0.9-1 by Bliss Independence Model and <0.9 by Highest Single Agent Model)); synergy, additivity or antagonism of the combination of Example 3 with the anti-cancer drug [8]: + (Additive relative to each agent alone (CI = 0.9-1 by Bliss Independence Model and <0.9 by Highest Single Agent Model)); synergy, additivity or antagonism of the combination of Example 3 with the anti-cancer drug [9]: + (Additive relative to each agent alone (CI = 0.9-1 by Bliss Independence Model and <0.9 by Highest Single Agent Model)); synergy, additivity or antagonism of the combination of Example 3 with the anti-cancer drug [10]: + (Additive relative to each agent alone (CI = 0.9-1 by Bliss Independence Model and <0.9 by Highest Single Agent Model)); synergy, additivity or antagonism of the combination of Example 3 with the anti-cancer drug [11]: + (Additive relative to each agent alone (CI = 0.9-1 by Bliss Independence Model and <0.9 by Highest Single Agent Model)); synergy, additivity or antagonism of the combination of Example 3 with the anti-cancer drug [12]: + (Additive relative to each agent alone (CI = 0.9-1 by Bliss Independence Model and <0.9 by Highest Single Agent Model)); synergy, additivity or antagonism of the combination of Example 3 with the anti-cancer drug [13]: + (Additive relative to each agent alone (CI = 0.9-1 by Bliss Independence Model and <0.9 by Highest Single Agent Model)); synergy, additivity or antagonism of the combination of Example 3 with the anti-cancer drug [14]: + (Additive relative to each agent alone (CI = 0.9-1 by Bliss Independence Model and <0.9 by Highest Single Agent Model)); synergy, additivity or antagonism of the combination of Example 3 with the anti-cancer drug [15]: + (Additive relative to each agent alone (CI = 0.9-1 by Bliss Independence Model and <0.9 by Highest Single Agent Model)); synergy, additivity or antagonism of the combination of Example 3 with the anti-cancer drug [16]: + (Additive relative to each agent alone (CI = 0.9-1 by Bliss Independence Model and <0.9 by Highest Single Agent Model)); synergy, additivity or antagonism of the combination of Example 3 with the anti-cancer drug [17]: + (Additive relative to each agent alone (CI = 0.9-1 by Bliss Independence Model and <0.9 by Highest Single Agent Model)); synergy, additivity or antagonism of the combination of Example 3 with the anti-cancer drug [18]: + + (Slight synergy relative to each agent alone (CI = 0.75-0.9 by Bliss Independence Model)); synergy, additivity or antagonism of the combination of Example 3 with the anti-cancer drug [19]: + (Additive relative to each agent alone (CI = 0.9-1 by Bliss Independence Model and <0.9 by Highest Single Agent Model)); synergy, additivity or antagonism of the combination of Example 3 with the anti-cancer drug [20]: + (Additive relative to each agent alone (CI = 0.9-1 by Bliss Independence Model and <0.9 by Highest Single Agent Model)); synergy, additivity or antagonism of the combination of Example 3 with the anti-cancer drug [21]: + (Additive relative to each agent alone (CI = 0.9-1 by Bliss Independence Model and <0.9 by Highest Single Agent Model)); synergy, additivity or antagonism of the combination of Example 3 with the anti-cancer drug [22]: + (Additive relative to each agent alone (CI = 0.9-1 by Bliss Independence Model and <0.9 by Highest Single Agent Model)); synergy, additivity or antagonism of the combination of Example 3 with the anti-cancer drug [23]: + (Additive relative to each agent alone (CI = 0.9-1 by Bliss Independence Model and <0.9 by Highest Single Agent Model)); synergy, additivity or antagonism of the combination of Example 3 with the anti-cancer drug [24]: + + (Slight synergy relative to each agent alone (CI = 0.75-0.9 by Bliss Independence Model)); synergy, additivity or antagonism of the combination of Example 3 with the anti-cancer drug [25]: + + (Slight synergy relative to each agent alone (CI = 0.75-0.9 by Bliss Independence Model)); synergy, additivity or antagonism of the combination of Example 3 with the anti-cancer drug [26]: + (Additive relative to each agent alone (CI = 0.9-1 by Bliss Independence Model and <0.9 by Highest Single Agent Model)); synergy, additivity or antagonism of the combination of Example 3 with the anti-cancer drug [27]: + (Additive relative to each agent alone (CI = 0.9-1 by Bliss Independence Model and <0.9 by Highest Single Agent Model)); synergy, additivity or antagonism of the combination of Example 3 with the anti-cancer drug [28]: + (Additive relative to each agent alone (CI = 0.9-1 by Bliss Independence Model and <0.9 by Highest Single Agent Model)); synergy, additivity or antagonism of the combination of Example 3 with the anti-cancer drug [29]: + (Additive relative to each agent alone (CI = 0.9-1 by Bliss Independence Model and <0.9 by Highest Single Agent Model)); synergy, additivity or antagonism of the combination of Example 3 with the anti-cancer drug [30]: + + + (Synergy relative to each agent alone (CI = 0.4-0.74 by Bliss Independence Model)); synergy, additivity or antagonism of the combination of Example 3 with the anti-cancer drug [31]: + (Additive relative to each agent alone (CI = 0.9-1 by Bliss Independence Model and <0.9 by Highest Single Agent Model)); synergy, additivity or antagonism of the combination of Example 3 with the anti-cancer drug [32]: + (Additive relative to each agent alone (CI = 0.9-1 by Bliss Independence Model and <0.9 by Highest Single Agent Model)); synergy, additivity or antagonism of the combination of Example 3 with the anti-cancer drug [33]: + + (Slight synergy relative to each agent alone (CI = 0.75-0.9 by Bliss Independence Model))
